Structures are written as SMILES.

Data set [1] in a line: complexation properties with ^225Ac. It counts as physicochemical. The settings on record: compared with non-functionalised chelating agents EDTA, DTPA, DOTA, PEPA, HEHA, EDTMP. Here is the method: (§1) Different non-functionalised chelating agents (commercially available or readily synthesised in the laboratory) bearing aminocarboxylate groups (EDTA, DTPA, DOTA, PEPA, and HEHA) or aminophosphonate groups (EDTMP) were tested for their complexation properties with ^225Ac and ^213Bi. […] Polyaza polycarboxylic macrocycles are known to form thermodynamically stable complexes with large metal ions such as actinides and lanthanides.

Data set [2] is described as follows: complexation properties with ^213Bi. It counts as physicochemical. The settings on record: non-functionalised chelating agents tested. The protocol: as §1

With `O=C(O)CN1CCN(CC(=O)O)CCN(CC(=O)O)CCN(CC(=O)O)CCN(CC(=O)O)CCN(CC(=O)O)CC1` [HEHA, 1,4,7,10,13,16-hexacarboxylmethyl-1,4,7,10,13,16-hexaazacyclooctadecane], in data set [1], the “^225Ac complexation” value is “best candidate”. The “chelation of ^213Bi” value in data set [2] is “good chelating agent”.

The values are drawn from patent US7132513B2, “Bifunctional chelating agent” (European Community, priority 2000, dated 2006).
